Results on 22 compounds are retold here after patent publication US20140005163A1 (NOVARTIS AG, priority 2010, published 2014).

Structures are written as SMILES.

In experiment [1] the target is T1, PI3K beta (Homo sapiens, UniProt P42338).
T1 construct: for the full-length p110-b subunit are generated and fused by overlapping PCR; p85(iSH2) fusion partner (see partner chain) (N); His tag (C); made in house; host or cells: baculovirus; Tn5 (Trichoplusia ni) or TiniPro insect cells
The experiment in a line: PI3K beta kinase assay (Kinase-Glo luminescence). Type of experiment: biochemical. In short, it runs like this: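 Residual ATP after a 60 min room-temperature reaction is quantified by Kinase-Glo luminescence. Enzyme: 25 nM BV-949 (p85 iSH2–linker–full-length p110β); substrates 1 μM ATP, 10 μg/mL PI; buffer Tris pH 7.5, MgCl2, NaCl, CHAPS, DTT. Eight concentrations per compound, four-parameter logistic IC50.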

The target of experiment [2] is T2, mTOR (Homo sapiens, UniProt P42345).
T2 construct: purchased Invitrogen Corporation (Carlsbad/CA, USA) PV4753
The experiment in a line: Biochemical assay for m-TOR by TR-FRET. The note with it: 8 μM ATP, 400 nM GFP-4EBP1, 0.5 nM mTOR. In short, it runs like this:
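TR-FRET detection of pThr46 on GFP-4EBP1 (400 nM final) using Tb3+-labelled antibody (0.5 nM), added with EDTA to stop reactions. Reactions ran at rt with 0.5 nM mTOR and 8 μM ATP (final) in HEPES pH 7.5 buffer containing 10 mM MnCl2.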

The test system of experiment [3] is PKB Ser473 phosphorylation in Rat1-myr-HA-p110 delta cells. Kind of experiment: Reverse protein array assay, PKB Ser473 phosphorylation in Rat1-myr-p110 delta cells. Type of experiment: cell-based. The note with it: read-out: p-PKB IC50. In short, it runs like this:
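Rat1 cells expressing myristoylated HA-tagged p110 alpha, beta or delta were plated for at least 20 h, then exposed to 8-step serial compound dilutions (0.2% DMSO final) for 30 min at 37 °C. Lysates were spotted at four dilutions on protein microarrays, and relative fluorescence intensity of phospho-Ser473 PKB was calculated.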

T1 sequence (P42338 with tags, fused parts or gaps limits assumed): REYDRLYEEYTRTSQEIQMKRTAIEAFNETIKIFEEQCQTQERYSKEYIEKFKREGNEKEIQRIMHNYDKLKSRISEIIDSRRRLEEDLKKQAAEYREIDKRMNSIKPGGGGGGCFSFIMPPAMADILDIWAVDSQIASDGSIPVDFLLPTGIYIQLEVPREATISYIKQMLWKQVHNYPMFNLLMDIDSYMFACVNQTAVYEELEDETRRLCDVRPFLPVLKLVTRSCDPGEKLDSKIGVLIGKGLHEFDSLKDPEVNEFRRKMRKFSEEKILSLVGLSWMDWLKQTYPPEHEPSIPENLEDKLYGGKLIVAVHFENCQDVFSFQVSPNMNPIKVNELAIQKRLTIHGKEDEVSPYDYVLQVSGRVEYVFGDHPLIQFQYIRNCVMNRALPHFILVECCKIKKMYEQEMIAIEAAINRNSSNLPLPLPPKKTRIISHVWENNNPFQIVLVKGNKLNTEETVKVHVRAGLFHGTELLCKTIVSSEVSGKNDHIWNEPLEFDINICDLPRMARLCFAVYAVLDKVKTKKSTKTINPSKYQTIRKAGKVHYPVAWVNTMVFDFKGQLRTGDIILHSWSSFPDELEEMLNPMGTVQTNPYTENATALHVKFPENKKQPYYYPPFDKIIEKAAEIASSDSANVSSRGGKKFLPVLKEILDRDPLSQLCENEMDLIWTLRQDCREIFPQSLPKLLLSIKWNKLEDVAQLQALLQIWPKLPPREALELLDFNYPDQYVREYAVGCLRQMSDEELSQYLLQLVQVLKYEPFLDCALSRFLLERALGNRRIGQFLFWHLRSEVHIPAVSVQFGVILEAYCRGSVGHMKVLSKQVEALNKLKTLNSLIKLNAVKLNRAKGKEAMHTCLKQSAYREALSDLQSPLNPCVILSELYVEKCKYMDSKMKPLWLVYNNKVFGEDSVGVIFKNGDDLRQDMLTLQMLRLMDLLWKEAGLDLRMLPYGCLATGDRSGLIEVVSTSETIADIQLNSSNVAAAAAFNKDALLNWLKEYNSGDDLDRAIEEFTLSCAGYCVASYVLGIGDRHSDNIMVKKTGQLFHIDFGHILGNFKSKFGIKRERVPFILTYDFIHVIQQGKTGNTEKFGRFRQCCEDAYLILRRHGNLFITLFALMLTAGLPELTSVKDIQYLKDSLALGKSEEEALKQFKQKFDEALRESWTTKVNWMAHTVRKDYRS
T2 sequence (P42345 1360-2549 limits assumed): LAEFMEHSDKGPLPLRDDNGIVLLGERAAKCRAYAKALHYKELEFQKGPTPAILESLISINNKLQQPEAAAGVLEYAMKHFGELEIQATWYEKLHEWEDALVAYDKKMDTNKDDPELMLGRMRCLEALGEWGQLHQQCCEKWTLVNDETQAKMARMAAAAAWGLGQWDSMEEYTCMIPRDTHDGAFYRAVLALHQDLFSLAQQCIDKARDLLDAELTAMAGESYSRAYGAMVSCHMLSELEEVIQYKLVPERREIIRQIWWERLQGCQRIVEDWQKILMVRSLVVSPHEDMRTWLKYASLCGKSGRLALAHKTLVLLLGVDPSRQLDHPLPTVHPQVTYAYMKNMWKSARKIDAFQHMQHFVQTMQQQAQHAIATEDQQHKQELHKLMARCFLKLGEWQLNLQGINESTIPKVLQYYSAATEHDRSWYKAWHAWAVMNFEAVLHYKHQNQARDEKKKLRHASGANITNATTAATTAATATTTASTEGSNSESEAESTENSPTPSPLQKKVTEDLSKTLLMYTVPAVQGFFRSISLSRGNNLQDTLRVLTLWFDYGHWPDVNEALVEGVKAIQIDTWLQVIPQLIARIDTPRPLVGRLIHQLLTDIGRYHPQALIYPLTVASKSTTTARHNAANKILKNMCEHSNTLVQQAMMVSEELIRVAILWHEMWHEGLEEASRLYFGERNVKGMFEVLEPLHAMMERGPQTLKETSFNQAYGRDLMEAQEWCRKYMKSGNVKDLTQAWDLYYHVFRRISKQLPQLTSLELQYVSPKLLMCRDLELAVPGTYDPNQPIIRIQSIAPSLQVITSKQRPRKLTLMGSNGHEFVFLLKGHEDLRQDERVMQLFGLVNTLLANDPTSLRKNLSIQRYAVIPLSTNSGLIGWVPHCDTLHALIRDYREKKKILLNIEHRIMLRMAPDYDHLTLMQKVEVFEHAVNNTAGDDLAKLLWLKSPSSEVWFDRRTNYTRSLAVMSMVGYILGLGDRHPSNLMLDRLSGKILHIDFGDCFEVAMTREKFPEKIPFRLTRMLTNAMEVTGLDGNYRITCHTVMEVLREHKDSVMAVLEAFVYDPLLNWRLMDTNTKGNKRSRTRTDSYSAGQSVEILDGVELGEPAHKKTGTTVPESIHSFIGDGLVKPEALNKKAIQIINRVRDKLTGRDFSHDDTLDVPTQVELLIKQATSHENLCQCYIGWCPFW

Consider `Cc1nn(C(C)C)cc1-n1c(=O)n(C)c2cnc3ccc(-c4ccc(N(C)C)nc4)cc3c21` [Example 4.1, 8-(6-Dimethylamino-pyridin-3-yl)-1-(1-isopropyl-3-methyl-1H-pyrazol-4-yl)-3-methyl-1,3-dihydro-imidazo[4,5-c]quinolin-2-one], for which the IC50 in experiment [1] stood at 0.762 µM; in experiment [2], 0.03 µM; in experiment [3], 0.059 µM.
The like results for `CCOc1cncc(-c2ccc3ncc4c(c3c2)n(-c2cn(C)nc2Cl)c(=O)n4C)c1` [Example 56.4, 1-(3-Chloro-1-methyl-1H-pyrazol-4-yl)-8-(5-ethoxy-pyridin-3-yl)-3-methyl-1,3-dihydro-imidazo[4,5-c]quinolin-2-one] were, in that order, 0.006 µM, 0.016 µM and 0.011 µM.
For the compound `CCOc1ccc(-c2ccc3ncc4c(c3c2)n(-c2cn(CC)nc2C)c(=O)n4C)cn1` [Example 3.5, 8-(6-Ethoxy-pyridin-3-yl)-1-(1-ethyl-3-methyl-1H-pyrazol-4-yl)-3-methyl-1,3-dihydro-imidazo[4,5-c]quinolin-2-one], the figures for the IC50 in experiment [1], in experiment [2] and in experiment [3] were 0.34 µM, 0.017 µM and 0.137 µM, respectively.
As for `CCn1cc(-n2c(=O)n(C)c3cnc4ccc(-c5ccc(OCCOC)c(OC)c5)cc4c32)c(C)n1` [Example 30.2, 1-(1-Ethyl-3-methyl-1H-pyrazol-4-yl)-8-[3-methoxy-4-(2-methoxy-ethoxy)-phenyl]-3-methyl-1,3-dihydro-imidazo[4,5-c]quinolin-2-one], the 50% inhibitory concentration (IC50) in experiment [1] turned out to be 0.239 µM; in experiment [2] it was 0.054 µM; in experiment [3] it was 0.155 µM.
For the compound `CNC(=O)c1ccc(-c2ccc3ncc4c(c3c2)n(-c2cn(C(C)C)nc2C)c(=O)n4C)cn1` [Example 15.3, 5-[1-(1-Isopropyl-3-methyl-1H-pyrazol-4-yl)-3-methyl-2-oxo-2,3-dihydro-1H-imidazo[4,5-c]quinolin-8-yl]-pyridine-2-carboxylic acid methylamide], the half-inhibitory concentration (IC50) came to 0.526 µM in experiment [1], 0.012 µM in experiment [2] and 0.1 µM in experiment [3].
For the compound `CCOc1cc(-c2ccc3ncc4c(c3c2)n(-c2cn(CC)nc2C)c(=O)n4C)ccc1OC` [Example 28.1, 8-(3-Ethoxy-4-methoxy-phenyl)-1-(1-ethyl-3-methyl-1H-pyrazol-4-yl)-3-methyl-1,3-dihydro-imidazo[4,5-c]quinolin-2-one], the half-inhibitory concentration (IC50) is 0.015 µM in experiment [1], 0.016 µM in experiment [2] and 0.045 µM in experiment [3].
In the case of `Cc1ncc(-c2ccc3ncc4c(c3c2)n(-c2cn(C)nc2C)c(=O)n4C)cc1O` [Example 185.1, 1-(1,3-Dimethyl-1H-pyrazol-4-yl)-8-(5-hydroxy-6-methyl-pyridin-3-yl)-3-methyl-1,3-dihydro-imidazo[4,5-c]quinolin-2-one], the figures for the IC50 in experiment [1], in experiment [2] and in experiment [3] were 0.009 µM, under 0.003 µM and 0.326 µM, respectively.
Regarding `Cc1noc(C)c1-n1c(=O)n(C)c2cnc3ccc(-c4cnc(N)c(Cl)c4)cc3c21` [Example 148.4, 8-(6-Amino-5-chloro-pyridin-3-yl)-1-(3,5-dimethyl-isoxazol-4-yl)-3-methyl-1,3-dihydro-imidazo[4,5-c]quinolin-2-one], the IC50 in experiment [1] is 0.095 µM; in experiment [2] it was 0.678 µM; in experiment [3], 0.37 µM.
For `COCc1ncc(-c2ccc3ncc4c(c3c2)n(-c2cn(C)nc2C)c(=O)n4C)cc1OC(C)C` [Example 191.1, 1-(1,3-Dimethyl-1H-pyrazol-4-yl)-8-(5-isopropoxy-6-methoxymethyl-pyridin-3-yl)-3-methyl-1,3-dihydro-imidazo[4,5-c]quinolin-2-one], the IC50 in experiment [1] turned out to be 0.024 µM; in experiment [2], 0.025 µM; in experiment [3] it was 0.056 µM.
Turning to `Cc1nn(C)cc1-n1c(=O)n(C)c2cnc3ccc(-c4cnc5c(c4)ncn5C)cc3c21` [Example 74, 1-(1,3-Dimethyl-1H-pyrazol-4-yl)-3-methyl-8-(3-methyl-3H-imidazo[4,5-b]pyridin-6-yl)-1,3-dihydro-imidazo[4,5-c]quinolin-2-one], the concentration for half-maximal inhibition (IC50) in experiment [1] was determined as 0.37 µM; in experiment [2], 0.03 µM; in experiment [3], 0.28 µM.
Consider `CCn1cc(-n2c(=O)n(C)c3cnc4ccc(-c5ccc(NC)nc5)cc4c32)c(C)n1` [Example 118.4, 1-(1-Ethyl-3-methyl-1H-pyrazol-4-yl)-3-methyl-8-(6-methylamino-pyridin-3-yl)-1,3-dihydro-imidazo[4,5-c]quinolin-2-one], for which the IC50 was determined as 0.13 µM in experiment [1], 0.004 µM in experiment [2] and 0.021 µM in experiment [3].
In the case of `Cc1nn(CC(=O)N(C)C)cc1-n1c(=O)n(C)c2cnc3ccc(-c4ccccc4)cc3c21` [Example 37.3, N,N-Dimethyl-2-[3-methyl-4-(3-methyl-2-oxo-8-phenyl-2,3-dihydro-imidazo[4,5-c]quinolin-1-yl)-pyrazol-1-yl]-acetamide], the half-inhibitory concentration (IC50) came out at 0.019 µM in experiment [2] and 0.362 µM in experiment [3].
Take `CCNc1cc(-c2ccc3ncc4c(c3c2)n(-c2c(C)nn(CCOC)c2C)c(=O)n4C)cnc1OC` [Example 90.2, 8-(5-Ethylamino-6-methoxy-pyridin-3-yl)-1-[1-(2-methoxy-ethyl)-3,5-dimethyl-1H-pyrazol-4-yl]-3-methyl-1,3-dihydro-imidazo[4,5-c]quinolin-2-one]: the figures for the IC50 in experiment [1], in experiment [2] and in experiment [3] were 0.115 µM, 0.129 µM and 0.046 µM, respectively.
For the compound `CCOc1ccc(-c2ccc3ncc4c(c3c2)n(-c2ccnn2CC)c(=O)n4C)cn1` [Example 3.4, 8-(6-Ethoxy-pyridin-3-yl)-1-(2-ethyl-2H-pyrazol-3-yl)-3-methyl-1,3-dihydro-imidazo[4,5-c]quinolin-2-one], the IC50 in experiment [2] was 0.161 µM; in experiment [3], 0.418 µM.
In the case of `Cc1nn(C)cc1-n1c(=O)n(C)c2cnc3ccc(-c4cncc(OC(C)C)c4)cc3c21` [Example 58.1, 1-(1,3-Dimethyl-1H-pyrazol-4-yl)-8-(5-isopropoxy-pyridin-3-yl)-3-methyl-1,3-dihydro-imidazo[4,5-c]quinolin-2-one], the figures for the IC50 in experiment [1], in experiment [2] and in experiment [3] were 0.007 µM, 0.014 µM and 0.043 µM, respectively.
In the case of `Cc1nn(C)cc1-n1c(=O)n(C)c2cnc3ccc(-c4cccc(C(N)=O)c4)cc3c21` [Example 46, 3-[1-(1,3-Dimethyl-1H-pyrazol-4-yl)-3-methyl-2-oxo-2,3-dihydro-1H-imidazo[4,5-c]quinolin-8-yl]-benzamide], the IC50 in experiment [1] was 0.563 µM; in experiment [2] it was 0.231 µM; in experiment [3], 0.489 µM.
Regarding `Cc1nn(C)cc1-n1c(=O)n(C)c2cnc3ccc(-c4ccc(-n5cccn5)nc4)cc3c21` [Example 79, 1-(1,3-Dimethyl-1H-pyrazol-4-yl)-3-methyl-8-(6-pyrazol-1-yl-pyridin-3-yl)-1,3-dihydro-imidazo[4,5-c]quinolin-2-one], the IC50 was under 0.003 µM in experiment [2] and 0.016 µM in experiment [3].
On to `COc1ccc(-c2ccc3ncc4[nH]c(=O)n(-c5cn(C)nc5C)c4c3n2)cc1OC` [Example 249, 8-(3,4-dimethoxy-phenyl)-1-(1,3-dimethyl-1H-pyrazol-4-yl)-1,3-dihydro-1,3,5,9-tetraaza-cyclopenta[a]naphthalen-2-one], for which the half-inhibitory concentration (IC50) was 0.033 µM in experiment [1], 0.03 µM in experiment [2] and 0.029 µM in experiment [3].
For `COc1ccc(-c2ccc3ncc4c(c3c2)n(-c2cn(C)nc2C)c(=O)n4C)cc1OC` [Example 1.8, 8-(3,4-Dimethoxy-phenyl)-1-(1,3-dimethyl-1H-pyrazol-4-yl)-3-methyl-1,3-dihydro-imidazo[4,5-c]quinolin-2-one], the figures for the concentration for half-maximal inhibition (IC50) in experiment [1], in experiment [2] and in experiment [3] were 0.02 µM, 0.006 µM and 0.014 µM, respectively.
On to `Cc1nn(CC(=O)N(C)C)c(C)c1-n1c(=O)n(C)c2cnc3ccc(-c4cncc(OC5CCC5)c4)cc3c21` [Example 60.2, 2-{4-[8-(5-Cyclobutoxy-pyridin-3-yl)-3-methyl-2-oxo-2,3-dihydro-imidazo[4,5-c]quinolin-1-yl]-3,5-dimethyl-pyrazol-1-yl}-N,N-dimethyl-acetamide], for which the 50% inhibitory concentration (IC50) in experiment [2] came to 0.703 µM.
Turning to `CCN(C)C(=O)Cn1cc(-n2c(=O)n(C)c3cnc4ccc(-c5cnc(N6CCCC6)nc5)cc4c32)c(C)n1` [Example 140.1, N-Ethyl-N-methyl-2-{3-methyl-4-[3-methyl-2-oxo-8-(2-pyrrolidin-1-yl-pyrimidin-5-yl)-2,3-dihydro-imidazo[4,5-c]quinolin-1-yl]-pyrazol-1-yl}-acetamide], the concentration for half-maximal inhibition (IC50) worked out at 0.036 µM in experiment [2] and 0.307 µM in experiment [3].
Turning to `CCN(C)C(=O)Cn1cc(-n2c(=O)n(C)c3cnc4ccc(-c5ccccc5)cc4c32)c(C)n1` [Example 135, N-Ethyl-N-methyl-2-[3-methyl-4-(3-methyl-2-oxo-8-phenyl-2,3-dihydro-imidazo[4,5-c]quinolin-1-yl)-pyrazol-1-yl]-acetamide], the results for the IC50 in experiment [2] and in experiment [3] were 0.14 µM and 0.363 µM, respectively.
